Our source for the ED50 and LD50 values is patent US4170649A, “1,4-Benzodiazepine derivatives, pharmaceutical compositions thereof, and process for their preparation” (Kali-Chemie Pharma GmbH, priority 1977, dated 1979).

Data set [1] deals with isolation-induced aggressiveness in mice. In words: Inhibition of isolation-induced aggressiveness in mice (anti-aggressive and anxiety-relieving activity). The conditions noted are these: Mus musculus, oral, isolated mice, 50% reduction of aggressive behavior. Format: in vivo. The method, then: Prior to carrying out the test, the mice are kept in strict isolation in single cages for a period of 4 weeks. After this period of isolation, mice which have been kept isolated spontaneously attack other mice which are introduced into their cage and had not been previously isolated. The test compounds are orally administered to the isolated mice and after a period of 30 minutes or 60 minutes after application, the dose which leads to a 50% reduction of the aggressive behavior is determined (according to a modified method described by Weischer and Opitz, Arch. int. Pharmacodyn. 195, 252 (1972)). The results which are obtained in this test are a valid indication of the activity of the tested compounds in relieving anxiety and stress-induced tensions.

Data set [2] concerns hexobarbital-induced sleep in mice. The data set is described as follows: CNS-depressant properties: prolongation of hexobarbital-induced sleep in mice. Format: in vivo. The conditions noted are these: Mus musculus, 0.5 h, oral, 64 mg/kg hexobarbital i.v. 30 minutes after application, 50% of animals with side-posture 4 times as long as control. On the procedure:
The test compounds are orally applied to mice. Additionally, a dose of 64 mg/kg of hexobarbital is injected, i.v., into the animals 30 minutes after application of the test compound. The point of time at which the animals lie down on their side and the duration of this side-posture are determined and are compared with the postural behavior of animals which are treated only with hexobarbital. The ED50 is defined as the dose which causes 50% of the animals to maintain the side-wise posture for a period of time which is 4 times as long as the period of time during which the control animals remain in their side-wise lying posture (see J. W. Kemp, M. Tannhaeuser and E. A. Swinyard, Arch. int. Pharmacodyn. 193 (1971), p. 37-47).

In data set [3] the test system is pentetrazole-induced convulsions. In words: Anti-convulsive activity against pentetrazole-induced spasms. It counts as in vivo. The conditions noted are these: Mus musculus; oral, mice; 100 mg/kg pentetrazole s.c. 60 minutes after application; observed 45 minutes; read-out: Inhibition of Pentetrazole-induced convulsions ED50. The method, then: The protective effect of the test compounds against convulsion is determined after oral application to groups of six (6) mice each. 60 minutes after application of the test compounds, a doses of 100 mg/kg of pentetrazole is subcutaneously injected. The occurrance of clonic and tonic convulsions is observed during a total period of 45 minutes. the protective effect of the test compounds against convulsion is determined by comparison with simultaneously performed tests in control-animals. The effective dose ED50 is calculated from the probitlogarithmic dosage curves (according to a modified method disclosed by J. E. Blum et al, Arzneimittel-Forsch. 23, 377 (1973)).
The results which are obtained according to the above method, provide an indication of the anti-convulsive activity of the test compounds. In the pharmacological art, it is well-known that this anti-convulsive activity in animals is an important criterion for evaluating the clinical tranquilizer activity of compounds (see A. Suria and E. Costa, Journal de Pharmacologie, Suppl. No. 1, 5, 94 (1974) and G. Zbinden and L. O. Randall, Advances in Pharmacol. 5, 257, (1967)). The test results given in Table II show a clear superiority of the compounds according to the present invention as compared to chlordiazepoxide.

The nature of data set [4]: Acute 7-day toxicity in mice (LD50). The note with it: mouse, in vivo, white NMRI-mice not fed. The method, then:
The acute 7-day-toxicity in white NMRI-mice is determined after administration of a single dose of the test compound per os or i.p. to the mice which had not been fed. The calculation of the LD50 is carried out by probitanalysis by means of electronic data processing (see L. Cavelli-Sforza, Gustav Fischer-Verlag, Stuttgart, (1964), Grundbegriffe der Biometrie, p. 153).

The mark [5] stands for this setting: 0.5 h, 30 minutes after application, read-out: Inhibition of isolation-induced aggressiveness in mice ED50 (30').
Where [6] appears, read: 1 h, 60 minutes after application, read-out: Inhibition of isolation-induced aggressiveness in mice ED50 (60').
[7] abbreviates: ip, single dose i.p., read-out: LD50 i.p.
Where [8] appears, read: po, single dose per os, read-out: LD50 p.o.

Structures are written as SMILES. Where two headings read alike, the source gives them in different places. A value given as a limit tells only on which side of the number the result lay.

Usually ED50 stands for the midpoint of the dose-response relation. By LD50 is commonly meant the dose at which mortality reaches 50%. Consider `CN1C(=CC(N)=O)CN=C(c2ccccc2F)c2cc(Cl)ccc21` [Compound No. 3, 7-chloro-1-methyl-2-carbamoylmethylene-5-(2'-fluorophenyl)-1,3-dihydro-2H-1,4-benzodiazepine], for which the ED50 in data set [1] (setting [5]) was determined as 2.1 mg/kg; in data set [1] (setting [6]), 3.9 mg/kg; in data set [2] it was 1.6 mg/kg; in data set [3], 0.4 mg/kg. The LD50 at 168 h in data set [4] (setting [7]) is 572 mg/kg; in data set [4] (setting [8]) it was greater than 1470 mg/kg.
In the case of `CN1C(=CC(N)=O)CN=C(c2ccccc2F)c2cc(Br)ccc21` [Compound No. 6, 7-bromo-1-methyl-2-carbamoylmethylene-5-(2'-fluorophenyl)-1,3-dihydro-2H-1,4-benzodiazepine], the 50% effective dose (ED50) in data set [1] (setting [5]) stood at 4.8 mg/kg; in data set [1] (setting [6]), 5.7 mg/kg; in data set [2], 2.6 mg/kg; in data set [3] it was 0.4 mg/kg. Besides, the LD50 at 168 h is 574 mg/kg in data set [4] (setting [7]) and greater than 1470 mg/kg in data set [4] (setting [8]).
For `CN1C(=CC(N)=O)CN=C(c2ccccc2C(F)(F)F)c2cc(Cl)ccc21` [Compound No. 4, 7-chloro-1-methyl-2-carbamoylmethylene-5-(2'-trifluoromethylphenyl)-1,3-dihydro-2H-1,4-benzodiazepine], the ED50 turned out to be 31.1 mg/kg in data set [1] (setting [5]), 31.1 mg/kg in data set [1] (setting [6]), 3.1 mg/kg in data set [2] and 0.3 mg/kg in data set [3]. Moreover, the LD50 at 168 h in data set [4] (setting [7]) is 287 mg/kg; in data set [4] (setting [8]), greater than 1470 mg/kg.
For `CN1C(=CC(N)=O)CN=C(c2ccccc2Cl)c2cc(Br)ccc21` [Compound No. 5, 7-bromo-1-methyl-2-carbamoylmethylene-5-(2'-chlorophenyl)-1,3-dihydro-2H-1,4-benzodiazepine], the ED50 was 5.4 mg/kg in data set [1] (setting [5]), 4.6 mg/kg in data set [1] (setting [6]), 1.3 mg/kg in data set [2] and 0.3 mg/kg in data set [3]. In addition, the values for the LD50 at 168 h in data set [4] (setting [7]) and in data set [4] (setting [8]) were greater than 1600 mg/kg and greater than 1470 mg/kg, respectively.
As for `CN1C(=CC(N)=O)CN=C(c2ccccc2Cl)c2cc(Cl)ccc21` [Compound No. 2, 7-chloro-1-methyl-2-carbamoylmethylene-5-(2'-chlorophenyl)-1,3-dihydro-2H-1,4-benzodiazepine], the ED50 is 2.2 mg/kg in data set [1] (setting [5]), 3.4 mg/kg in data set [1] (setting [6]), 5 mg/kg in data set [2] and 0.1 mg/kg in data set [3]. Also, the results for the LD50 at 168 h in data set [4] (setting [7]) and in data set [4] (setting [8]) were 410 mg/kg and greater than 1000 mg/kg, respectively.
`CN1C(=CC(N)=O)CN=C(c2ccccc2Cl)c2cc([N+](=O)[O-])ccc21` [Compound No. 7, 7-nitro-1-methyl-2-carbamoylmethylene-5-(2'-chlorophenyl)-1,3-dihydro-2H-1,4-benzodiazepine]: the ED50 in data set [2] came out at 2.5 mg/kg; in data set [3], 1 mg/kg. For the same compound, the LD50 at 168 h in data set [4] (setting [8]) was greater than 1470 mg/kg.
In the case of `CNC1=Nc2ccc(Cl)cc2C(c2ccccc2)=[N+]([O-])C1` [comparison, 7-chloro-2-methylamino-5-phenyl-3H-1,4-benzodiazepine-4-oxide, reference compound], the ED50 in data set [1] (setting [5]) was determined as 60 mg/kg; in data set [1] (setting [6]), 47 mg/kg; in data set [2], 6 mg/kg; in data set [3], 5 mg/kg. In addition, the LD50 at 168 h in data set [4] (setting [7]) worked out at 300 mg/kg; in data set [4] (setting [8]) it was 903 mg/kg.
For the compound `CN1C(=CC(N)=O)CN=C(c2ccccc2)c2cc(Cl)ccc21` [Compound No. 1, 7-chloro-1-methyl-2-carbamoylmethylene-5-phenyl-1,3-dihydro-2H-1,4-benzodiazepine], the ED50 was found to be 12.2 mg/kg in data set [1] (setting [5]), 9.6 mg/kg in data set [1] (setting [6]), 3.2 mg/kg in data set [2] and 2.4 mg/kg in data set [3]. For the same compound, the LD50 at 168 h in data set [4] (setting [7]) is 288 mg/kg; in data set [4] (setting [8]), greater than 1470 mg/kg.
